Test systems include NCI-H522; NCI/ADR-RES; KM12; Hs-578T; OVCAR-8; K562; NCI-H226; DU-145; SK-MEL-5; PC-3; SF-268; HOP-92; RXF 393; UACC-62; NCI-H460; TK-10; HT-29; SF-539; MCF7.
Common to all, as to assay: NCI-60 cell line screen, 48 h

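Five compound concentrations were applied to cells in 96-well plates for 48 hours; endpoints were derived by simple linear interpolation of the resulting dose-response curve. The concentration for 50% growth inhibition is given as GI50.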 The source made the active and inactive calls. No stated cut-off is given here; in the data, active = GI50 up to about 1.1 µM and inactive = higher.

Turning to `Cc1nc(C)c(N2CCNCC2)c(O)n1`, the GI50 in the test with NCI-H522, with NCI/ADR-RES, in the test with KM12, in the test on Hs-578T, in the test with OVCAR-8 and in the test on K562 was > 100 µM (inactive) throughout. In addition, the GI50 with NCI-H226, in the test with DU-145, in the test on SK-MEL-5, in the test with PC-3, with SF-268 and in the test with HOP-92 was > 100 µM (inactive) throughout. Further, the GI50 with RXF 393, in the test on UACC-62, with NCI-H460, in the test with TK-10, in the test on HT-29 and in the test with SF-539 was > 100 µM (inactive) each time. Besides, the GI50 in the test with MCF7 was > 100 µM (inactive).
On to `Cc1cc(C)nc(NS(=O)(=O)c2ccc(NC(=O)c3cccc4c(NNc5ccc(S(=O)(=O)N=C(N)N)cc5)c5ccccc5nc34)cc2)n1`, for which the GI50 in the test with NCI-H522, in the test with NCI/ADR-RES, in the test with KM12, with Hs-578T, in the test on OVCAR-8 and in the test with K562 was > 50 µM (inactive) throughout. The GI50 with NCI-H226, in the test with DU-145, in the test with SK-MEL-5, in the test on PC-3, in the test with SF-268 and with HOP-92 was > 50 µM (inactive) in each case. Also, the GI50 in the test with RXF 393, with UACC-62, with NCI-H460, with TK-10, in the test on HT-29 and in the test with SF-539 was > 50 µM (inactive) throughout. Moreover, in the test with MCF7, the GI50 is > 50 µM (inactive).
Regarding `c1ccc(C2=NOC(c3ccccc3)N2C23CC4CC(CC(C4)C2)C3)cc1` (stereo not given), the GI50 in the test with NCI-H522, in the test on NCI/ADR-RES, with KM12, in the test on Hs-578T, in the test on OVCAR-8 and in the test with K562 was > 10 µM (inactive) throughout. In addition, the GI50 with NCI-H226, in the test on DU-145, with SK-MEL-5, with PC-3, with SF-268 and in the test on HOP-92 was > 10 µM (inactive) each time. Besides, the GI50 with RXF 393, with UACC-62, in the test with NCI-H460, with TK-10, in the test with HT-29 and in the test on SF-539 was > 10 µM (inactive) each time. In the test on MCF7, the GI50 was 5.82 µM (inactive).
As to `CC[C@@H](/C=C\CCC1(C[C@@H](N)CCC=C(C)C)OCCO1)O[Si](C(C)C)(C(C)C)C(C)C`, the GI50 is 20 µM (inactive) with NCI-H522; 16.8 µM (inactive) with NCI/ADR-RES; 18.1 µM (inactive) with KM12; 26 µM (inactive) with Hs-578T; 11.9 µM (inactive) in the test on OVCAR-8; 10.8 µM (inactive) with K562. In addition, the GI50 in the test on NCI-H226 was 17.4 µM (inactive); in the test on DU-145 it was 19.8 µM (inactive); in the test on SK-MEL-5 it was 18.1 µM (inactive); in the test on PC-3, 16.1 µM (inactive); in the test on SF-268, 19.1 µM (inactive); with HOP-92, 14.9 µM (inactive). The GI50 in the test with RXF 393 was 19.4 µM (inactive); with UACC-62 it was 17.8 µM (inactive); in the test with NCI-H460, 18.4 µM (inactive); in the test with TK-10 it was 17.1 µM (inactive); with HT-29, 17.3 µM (inactive); in the test on SF-539, 17.7 µM (inactive). Moreover, the GI50 with MCF7 is 16.3 µM (inactive).
As for `OC(CN(CCCl)CCCl)C(O)C(O)C(O)CN(CCCl)CCCl` (stereo not given), the GI50 was 47.3 µM (inactive) with NCI-H522; 78.9 µM (inactive) in the test with NCI/ADR-RES; > 100 µM (inactive) in the test with KM12; > 100 µM (inactive) in the test on Hs-578T; > 100 µM (inactive) in the test with OVCAR-8; > 100 µM (inactive) in the test with K562. The GI50 was > 100 µM (inactive) in the test with NCI-H226; 71.9 µM (inactive) with DU-145; > 100 µM (inactive) in the test with SK-MEL-5; > 100 µM (inactive) with PC-3; 41.6 µM (inactive) in the test with SF-268; > 100 µM (inactive) in the test with HOP-92. For the same compound, the GI50 was > 100 µM (inactive) with RXF 393; 12.4 µM (inactive) in the test on UACC-62; 9.89 µM (inactive) in the test with NCI-H460; > 100 µM (inactive) with TK-10; > 100 µM (inactive) in the test on HT-29; 52.4 µM (inactive) in the test with SF-539. For the same compound, in the test on MCF7, the GI50 is 29 µM (inactive).
For the compound `O=C(O)c1c2c(cc3c1CC1(Cc4cc5c(cc4C1=O)CCC5)C3)CCC2` (stereo not given), the GI50 in the test on NCI-H522 was 76.4 µM (inactive); with NCI/ADR-RES, > 100 µM (inactive); with KM12, 89.5 µM (inactive); in the test on Hs-578T it was > 100 µM (inactive); with OVCAR-8 it was > 100 µM (inactive); in the test with K562, 52.4 µM (inactive). The GI50 in the test with NCI-H226 was > 100 µM (inactive); in the test on DU-145 it was 98.2 µM (inactive); in the test with SK-MEL-5, > 100 µM (inactive); with PC-3, > 100 µM (inactive); in the test on SF-268, > 100 µM (inactive); with HOP-92 it was > 100 µM (inactive). The GI50 was 92.9 µM (inactive) in the test on RXF 393; > 100 µM (inactive) with UACC-62; 71.1 µM (inactive) with NCI-H460; > 100 µM (inactive) in the test on TK-10; > 100 µM (inactive) in the test with HT-29; > 100 µM (inactive) in the test with SF-539. The GI50 with MCF7 was 42.4 µM (inactive).
With `O=C(/C=C/c1ccc(O)cc1)c1ccc(O)cc1` [4,4'-DIHYDROXYCHALCONE], the GI50 was 3.94 µM (inactive) in the test on NCI-H522; 21.6 µM (inactive) in the test with NCI/ADR-RES; 11.9 µM (inactive) in the test on KM12; 27 µM (inactive) in the test with Hs-578T; 16.7 µM (inactive) in the test with OVCAR-8; 27.2 µM (inactive) with K562. The GI50 was 16.8 µM (inactive) in the test with NCI-H226; 34.2 µM (inactive) in the test on DU-145; 21.5 µM (inactive) in the test with SK-MEL-5; 28.7 µM (inactive) in the test on PC-3; 21.4 µM (inactive) in the test with SF-268; 31.6 µM (inactive) with HOP-92. Also, the GI50 with RXF 393 is 22.9 µM (inactive); in the test with UACC-62, 25.5 µM (inactive); with NCI-H460, 26.8 µM (inactive); in the test with TK-10, 46.9 µM (inactive); in the test on HT-29 it was 19.9 µM (inactive); in the test with SF-539, 21.1 µM (inactive). For the same compound, the GI50 with MCF7 is 32.9 µM (inactive).
On to `Cc1ccnc2[nH]c(-c3ccccc3)cc(=O)c12`, for which the GI50 in the test on NCI-H522 is 0.00838 µM (active); in the test with NCI/ADR-RES, 0.00451 µM (active); with KM12 it was 0.00705 µM (active); in the test with Hs-578T it was 0.0114 µM (active); in the test with OVCAR-8, 0.027 µM (active); with K562, 0.00281 µM (active). Further, the GI50 in the test on NCI-H226 was 0.0246 µM (active); with DU-145, 0.0313 µM (active); in the test with SK-MEL-5 it was 0.00387 µM (active); in the test on PC-3 it was 0.00548 µM (active); with SF-268, 0.0341 µM (active); with HOP-92 it was 0.0524 µM (active). Also, the GI50 is 0.0192 µM (active) with RXF 393; 0.00535 µM (active) with UACC-62; 0.00682 µM (active) in the test with NCI-H460; 0.106 µM (active) with TK-10; 0.00361 µM (active) in the test with HT-29; 0.0191 µM (active) in the test with SF-539. Further, the GI50 in the test on MCF7 was 0.0398 µM (active).
On to `NS(=O)(=O)c1ccc(/N=N/c2c(O)c(C(=O)O)cc3ccccc23)cc1`, for which the GI50 is > 76.7 µM (inactive) in the test on NCI-H522; > 100 µM (inactive) in the test on NCI/ADR-RES; > 75.7 µM (inactive) with KM12; > 100 µM (inactive) in the test with Hs-578T; > 100 µM (inactive) with OVCAR-8; > 94.4 µM (inactive) with K562. Moreover, the GI50 in the test on NCI-H226 was > 100 µM (inactive); with DU-145 it was > 100 µM (inactive); in the test on SK-MEL-5, 53.8 µM (inactive); with PC-3 it was > 100 µM (inactive); in the test on SF-268 it was > 100 µM (inactive); in the test on HOP-92, > 100 µM (inactive). Moreover, the GI50 in the test with RXF 393 is > 100 µM (inactive); in the test on UACC-62, 37.2 µM (inactive); in the test on NCI-H460 it was > 100 µM (inactive); with TK-10, > 100 µM (inactive); in the test on HT-29 it was > 100 µM (inactive); in the test with SF-539, > 100 µM (inactive). In the test with MCF7, the GI50 is > 90.2 µM (inactive).
On to `COc1cc(C(=O)O)ccc1OS(=O)(=O)O`, for which the GI50 in the test on NCI-H522, in the test on NCI/ADR-RES, with KM12, in the test on Hs-578T, in the test on OVCAR-8 and in the test with K562 was > 100 µM (inactive) in each case. The GI50 in the test with NCI-H226, in the test with DU-145, with SK-MEL-5, in the test on PC-3, in the test on SF-268 and in the test on HOP-92 was > 100 µM (inactive) throughout. The GI50 was 30.3 µM (inactive) in the test on RXF 393; > 100 µM (inactive) in the test on UACC-62; > 100 µM (inactive) with NCI-H460; > 100 µM (inactive) with TK-10; > 100 µM (inactive) in the test on HT-29; > 100 µM (inactive) in the test on SF-539. The GI50 in the test on MCF7 was > 100 µM (inactive).

For the origin of these results see ChEMBL document CHEMBL1201862, “PubChem BioAssay data set” (2004).
